From PubChem BioAssay AID1259407 (Chemical Carcinogenesis Research Information System (CCRIS), 2018)
Activity calls are given as the source filed them. How the calls were made is not given here.

Tested on: CCRIS mutagenicity, Ames/micronucleus/aberration tests
Assay: CCRIS mutagenicity studies

Structure (SMILES): Nc1cccc(N)c1
- mutagenic call (End Point: IN VITRO CHROMOSOMAL ABERRATIONS, Test System: CHINESE HAMSTER LUNG CELLS (CHL), Metabolic Activation: RAT, LIVER, S-9, KC-400): active; positive (structural changes)
- mutagenic call (End Point: IN VITRO CHROMOSOMAL ABERRATIONS, Test System: CHINESE HAMSTER OVARY CELLS (CHO), Metabolic Activation: NONE): active; positive (structural changes)
- mutagenic call (End Point: IN VITRO CHROMOSOMAL ABERRATIONS, Test System: CHINESE HAMSTER OVARY CELLS (CHO), Metabolic Activation: RAT, LIVER, S-9, AROCLOR 1254): inactive; negative
- mutagenic call (End Point: IN VITRO CHROMOSOMAL ABERRATIONS, Test System: CHL CELLS, Metabolic Activation: NONE): active; positive (structural changes)
- mutagenic call (End Point: IN VITRO CHROMOSOMAL ABERRATIONS, Test System: CHL CELLS, Metabolic Activation: RAT, LIVER, S-9, SODIUM PHENOBARBITAL AND 5,6-BENZOFLAVONE): active; positive (structural changes)
- mutagenic call (End Point: IN VITRO CHROMOSOMAL ABERRATIONS, Test System: CHL/IU CELLS, Metabolic Activation: NONE): active; positive (ploidy changes)
- mutagenic call (End Point: IN VITRO MICRONUCLEUS, Test System: CHL/IU CELLS, Metabolic Activation: NONE): active; positive
- mutagenic call (Test System: AMES SALMONELLA TYPHIMURIUM, Strain/Indicator: TA97, Metabolic Activation: HAMSTER, LIVER, S-9, AROCLOR 1254 (10%), Method: PREINCUBATION): active; positive
- mutagenic call (Test System: AMES SALMONELLA TYPHIMURIUM, Strain/Indicator: TA97, Metabolic Activation: NONE, Method: PREINCUBATION): inactive; negative
- mutagenic call (Test System: AMES SALMONELLA TYPHIMURIUM, Strain/Indicator: TA97, Metabolic Activation: RAT, LIVER, S-9, AROCLOR 1254 (4 OR 10%), Method: STANDARD PLATE): active; positive
- mutagenic call (Test System: AMES SALMONELLA TYPHIMURIUM, Strain/Indicator: TA97, Metabolic Activation: RAT, LIVER, S-9, AROCLOR 1254 (10%), Method: PREINCUBATION): active; positive
- mutagenic call (Test System: AMES SALMONELLA TYPHIMURIUM, Strain/Indicator: TA98(1,8-DNP6), Metabolic Activation: TOBACCO, TX1 CELLS, Method: PREINCUBATION): inactive; negative
- mutagenic call (Test System: AMES SALMONELLA TYPHIMURIUM, Strain/Indicator: TA98, Metabolic Activation: HAMSTER, LIVER, S-9, AROCLOR 1254 (10%), Method: PREINCUBATION): active; positive
- mutagenic call (Test System: AMES SALMONELLA TYPHIMURIUM, Strain/Indicator: TA98, Metabolic Activation: PEA APICAL BUD S-9, Method: PREINCUBATION): active; positive
- mutagenic call (Test System: AMES SALMONELLA TYPHIMURIUM, Strain/Indicator: TA98, Metabolic Activation: PEA APICAL BUD S-9, Method: STANDARD PLATE): active; positive
- mutagenic call (Test System: AMES SALMONELLA TYPHIMURIUM, Strain/Indicator: TA98, Metabolic Activation: PLANT (PERSEA AMERICANA) S-117, Method: STANDARD PLATE): active; positive
- mutagenic call (Test System: AMES SALMONELLA TYPHIMURIUM, Strain/Indicator: TA98, Metabolic Activation: PLANT (ZEA MAYS) S-9, Method: STANDARD PLATE): active; positive
- mutagenic call (Test System: AMES SALMONELLA TYPHIMURIUM, Strain/Indicator: TA98, Metabolic Activation: RAT, BLADDER, S-9, PCB, Method: FLUCTUATION TEST): active; positive
- mutagenic call (Test System: AMES SALMONELLA TYPHIMURIUM, Strain/Indicator: TA98, Metabolic Activation: RAT, LIVER, S-9, AROCLOR 1254 (10%), Method: PREINCUBATION): active; positive
- mutagenic call (Test System: AMES SALMONELLA TYPHIMURIUM, Strain/Indicator: TA98, Metabolic Activation: RAT, LIVER, S-9, AROCLOR 1254, Method: PREINCUBATION): active; positive
- mutagenic call (Test System: AMES SALMONELLA TYPHIMURIUM, Strain/Indicator: TA98, Metabolic Activation: RAT, LIVER, S-9, AROCLOR 1254, Method: STANDARD PLATE): active; positive
- mutagenic call (Test System: AMES SALMONELLA TYPHIMURIUM, Strain/Indicator: TA98, Metabolic Activation: RAT, LIVER, S-9, PCB, Method: PREINCUBATION): active; positive
- mutagenic call (Test System: AMES SALMONELLA TYPHIMURIUM, Strain/Indicator: TA98, Metabolic Activation: RAT, LIVER, S-9, PHENOBARBITAL AND 5,6-BENZOFLAVONE, Method: PREINCUBATION): active; positive
- mutagenic call (Test System: AMES SALMONELLA TYPHIMURIUM, Strain/Indicator: TA98, Metabolic Activation: S-9, Method: PREINCUBATION): active; positive
- mutagenic call (Test System: AMES SALMONELLA TYPHIMURIUM, Strain/Indicator: TA98, Metabolic Activation: TOBACCO, TX1 CELLS, Method: PREINCUBATION): active; positive
- mutagenic call (Test System: AMES SALMONELLA TYPHIMURIUM, Strain/Indicator: TA100, Metabolic Activation: HAMSTER, LIVER, S-9, AROCLOR 1254 (10%), Method: PREINCUBATION): active; positive
- mutagenic call (Test System: AMES SALMONELLA TYPHIMURIUM, Strain/Indicator: TA100, Metabolic Activation: NONE, Method: STANDARD PLATE): inactive; negative
- mutagenic call (Test System: AMES SALMONELLA TYPHIMURIUM, Strain/Indicator: TA100, Metabolic Activation: PEA APICAL BUD S-9, Method: PREINCUBATION): inactive; negative
- mutagenic call (Test System: AMES SALMONELLA TYPHIMURIUM, Strain/Indicator: TA100, Metabolic Activation: PEA APICAL BUD S-9, Method: STANDARD PLATE): inactive; negative
- mutagenic call (Test System: AMES SALMONELLA TYPHIMURIUM, Strain/Indicator: TA100, Metabolic Activation: RAT, BLADDER, S-9, PCB, Method: FLUCTUATION TEST): active; positive
- mutagenic call (Test System: AMES SALMONELLA TYPHIMURIUM, Strain/Indicator: TA100, Metabolic Activation: RAT, LIVER, S-9, AROCLOR 1254 (10%), Method: PREINCUBATION): active; positive
- mutagenic call (Test System: AMES SALMONELLA TYPHIMURIUM, Strain/Indicator: TA100, Metabolic Activation: RAT, LIVER, S-9, AROCLOR 1254, Method: PREINCUBATION): active; positive
- mutagenic call (Test System: AMES SALMONELLA TYPHIMURIUM, Strain/Indicator: TA100, Metabolic Activation: RAT, LIVER, S-9, PCB, Method: PREINCUBATION): active; positive
